This assay deals with SARS-CoV-2 3CLpro (Severe acute respiratory syndrome coronavirus 2, UniProt P0DTD1). Put plainly: biochemical. The class given is biochemical. Details: Replicate_1 / Replicate_2 / mean / mean (LOPAC_screen_w_protease): unit not given here. Particulars: for inhibition at 5 µM: 4 h; for mean / Replicate_1 / Replicate_2: 5 µM.
The mark [1] stands for this setting: sheet LOPAC_screen_w_protease, LOPAC1280 primary screen at 5 µM, with protease, mean of the two replicates, read-out: mean.
Setting [2] is: sheet LOPAC_screen_w_protease, LOPAC1280 primary screen at 5 µM, with protease, replicate 1, read-out: Replicate_1.
Setting [3] is: sheet LOPAC_screen_w_protease, LOPAC1280 primary screen at 5 µM, with protease, replicate 2, read-out: Replicate_2.
Setting [4] is: sheet LOPAC_screen_w_protease, primary screen with protease, mean of two replicates, read-out: mean.
Where [5] appears, read: sheet LOPAC_screen_w_protease, primary screen with protease, replicate 1, read-out: Replicate_1.
Where [6] appears, read: sheet LOPAC_screen_w_protease, primary screen with protease, replicate 2, read-out: Replicate_2.
Setting [7] is: read-out: Replicate_1 (LOPAC screen with protease).
[8] abbreviates: read-out: Replicate_2 (LOPAC screen with protease).
Setting [9] is: read-out: mean (LOPAC screen with protease).
The mark [10] stands for this setting: LOPAC1280 primary screen with protease, 5 µM compound, replicate 1, read-out: Replicate_1 (LOPAC_screen_w_protease).
Setting [11] is: LOPAC1280 primary screen with protease, 5 µM compound, replicate 2, read-out: Replicate_2 (LOPAC_screen_w_protease).
Setting [12] is: LOPAC1280 primary screen with protease, 5 µM compound, mean of the two replicates.
Where [13] appears, read: sheet LOPAC_screen_w_protease, primary screen with protease, mean of two replicates.
The mark [14] stands for this setting: sheet LOPAC_screen_w_protease, primary screen with protease, replicate 1.
Setting [15] is: sheet LOPAC_screen_w_protease, primary screen with protease, replicate 2.

This is an account of results in publication PMC7587356, “High-Throughput Screening for Inhibitors of the SARS-CoV-2 Protease Using a FRET-Biosensor” (Molecules, 2020).

Structures can show the parent of a compound that is named as a salt. Where two headings read alike, the source gives them in different places.

In the case of `CCC1(C2=NCCN2)Cc2ccccc2O1` (stereo not drawn) [Efaroxan hydrochloride], the inhibition at 5 µM by setting is: under setting [1], 0.692%; under setting [2], 2.34%; under setting [3], -0.954%.

For `OC(CN1CCC(Cc2ccc(F)cc2)CC1)c1ccc(Cl)cc1` (stereo not drawn) [Eliprodil], the inhibition at 5 µM by setting is: (sheet LOPAC_screen_w_protease, primary screen with protease, compound at 5 µM, mean of two replicates, read-out: mean) 2.62%; (sheet LOPAC_screen_w_protease, primary screen with protease, compound at 5 µM, replicate 1, read-out: Replicate_1) 2.73%; (sheet LOPAC_screen_w_protease, primary screen with protease, compound at 5 µM, replicate 2, read-out: Replicate_2) 2.52%.

With `Cc1c2ccncc2c(C)c2c1[nH]c1ccccc12` [Ellipticine], the inhibition at 5 µM was 2.32% under setting [4], 4.78% under setting [5] and -0.147% under setting [6].

For the molecule `Cc1cc(O)c2c(c1)C(=O)c1cc(O)cc(O)c1C2=O` [Emodin], the inhibition at 5 µM is, setting by setting: under setting [7], 10.9%; under setting [8], 5.72%; under setting [9], 8.32%.

Take `O=C(O)[C@@H]1[C@H](C(=O)O)[C@H]2CC[C@@H]1O2` [Endothall]: the inhibition at 5 µM is 3.42% (read-out: Replicate_1), -0.805% (read-out: Replicate_2) and 1.31% (read-out: mean).

Consider `CSc1ccc(C(=O)c2[nH]c(=O)[nH]c2C)cc1` [Enoximone], for which the inhibition at 5 µM was determined as 7.98% under setting [7], 10% under setting [8] and 9.01% under setting [9].

Regarding `CC(C)C[C@H](NC(=O)[C@H](O)[C@H](N)Cc1ccccc1)C(=O)O` [Epibestatin hydrochloride], the inhibition at 5 µM amounted to 1.71% under setting [10] and 2.3% under setting [11]. For the same molecule, the “mean (LOPAC_screen_w_protease)” value under setting [12] came to 2.008.

Take `CC(C)[C@@]1(NC(=O)[C@@H]2C=C3c4cccc5[nH]cc(c45)C[C@H]3N(C)C2)O[C@@]2(O)[C@@H]3CCCN3C(=O)[C@H](Cc3ccccc3)N2C1=O` [Ergocristine]: the inhibition at 5 µM stood at 4.04% (read-out: Replicate_1), 2.86% (read-out: Replicate_2) and 3.45% (read-out: mean).

With `CCOC(=O)c1cnc2c(cnn2CC)c1NN=C(C)C` [Etazolate hydrochloride], the inhibition at 5 µM is 6.78% (sheet LOPAC_screen_w_protease, primary screen at 5 µM, mean of two replicates, read-out: mean (LOPAC screen with protease)); 5.91% (sheet LOPAC_screen_w_protease, primary screen at 5 µM, replicate 1, read-out: Replicate_1 (LOPAC screen with protease)); 7.65% (sheet LOPAC_screen_w_protease, primary screen at 5 µM, replicate 2, read-out: Replicate_2 (LOPAC screen with protease)).

Turning to `CCC1(C)CC(=O)NC1=O` (stereo not drawn) [Ethosuximide], the inhibition at 5 µM is, setting by setting: under setting [10], 4.21%; under setting [11], -0.21%. Besides, the “mean (LOPAC_screen_w_protease)” value under setting [12] is 1.998.

For the molecule `CCc1cccc2c3c([nH]c12)C(CC)(CC(=O)O)OCC3` (stereo not drawn) [Etodolac], the inhibition at 5 µM by setting is: under setting [1], 0.659%; under setting [2], 1.48%; under setting [3], -0.164%.

As for `COC(=O)c1c(C)[nH]c(C)c1C(=O)c1ccccc1Cc1ccccc1` [FPL 64176], under setting [13], the mean was found to be 0.1984. In addition, under setting [14], the Replicate_1 was found to be 1.679. The molecule also came in with a Replicate_2 under setting [15] of -1.282.

For `CCCn1c(=O)c2[nH]c(C3CCCC3)nc2n(CCCOC(=O)c2ccc(S(=O)(=O)F)cc2)c1=O` [FSCPX], the “mean (LOPAC screen with protease)” value (sheet LOPAC_screen_w_protease, primary screen at 5 µM, mean of two replicates) was found to be 6.832. The “Replicate_1 (LOPAC screen with protease)” value (sheet LOPAC_screen_w_protease, primary screen at 5 µM, replicate 1) amounted to 8.115. Besides, the “Replicate_2 (LOPAC screen with protease)” value (sheet LOPAC_screen_w_protease, primary screen at 5 µM, replicate 2) is 5.548.

Molecule `CC(C)=CCC/C(C)=C/CC/C(C)=C/CSc1ccccc1C(=O)O` [Farnesylthiosalicylic acid] registered a mean under setting [13] of 0.3894. For the same molecule, the Replicate_1 under setting [14] is 1.928. Under setting [15], this molecule yielded a Replicate_2 of -1.149.

For the molecule `NC(=O)OCC(COC(N)=O)c1ccccc1` [Felbamate], the inhibition at 5 µM runs as follows: under setting [4], 2.23%; under setting [5], 3.62%; under setting [6], 0.843%.

Turning to `Oc1ccc(C2CNCCc3c2cc(O)c(O)c3Cl)cc1` (stereo not drawn) [Fenoldopam bromide], the inhibition at 5 µM under setting [7] came out at 29.5%, the inhibition at 5 µM under setting [8] came to 23% and the inhibition at 5 µM under setting [9] was 26.2%.

For `CC(Cc1ccc(O)cc1)NCC(O)c1cc(O)cc(O)c1` (stereo not drawn) [Fenoterol hydrobromide], the inhibition at 5 µM is 5.3% (sheet LOPAC_screen_w_protease, LOPAC1280 primary screen with protease, 5 µM compound, mean of the two replicates, read-out: mean); 6.58% (sheet LOPAC_screen_w_protease, LOPAC1280 primary screen with protease, 5 µM compound, replicate 1, read-out: Replicate_1); 4.02% (sheet LOPAC_screen_w_protease, LOPAC1280 primary screen with protease, 5 µM compound, replicate 2, read-out: Replicate_2).

As to `O=C1NCC2(CCN(CCc3ccccc3)CC2)O1` [Fenspiride hydrochloride], the inhibition at 5 µM is, setting by setting: under setting [4], 2.48%; under setting [5], 4.11%; under setting [6], 0.843%.
